Experimental data: patent US12600714B2, “Substituted pyrazinecarboxamide compounds for treating diseases related to EGFR mutation” (WIGEN BIOMEDICINE TECHNOLOGY (SHANGHAI) CO., LTD., priority 2020, dated 2026)
pIC50: −log10 of the molar value.

Tests used:
[1] = biological target: EGFR (L858R/T790M/C797S) (Homo sapiens, UniProt P00533, C797S/L858R/T790M); assay: HTRF inhibitory activity assay against EGFR (L858R/T790M/C797S) enzyme; format: biochemical; conditions: read-out: EGFR (L858R/T790M/C797S) inhibition (%) (0.3 nM compound)
Method: Inhibitory Activity Assay of the Compounds Disclosed Herein Against EGFR (del19/T790M/C797S), EGFR (L858R/T790M/C797S) or EGFR (WT) Enzymes
The inhibitory effects of the compounds against EGFR (del19/T790M/C797S), EGFR (L858R/T790M/C797S) or EGFR (WT) enzyme activity was determined by using HTRF. The procedures are as follows:
The WT or mutant EGFR proteins were incubated with a serially diluted compounds at 28° C. for 10 min followed by addition of biotin-labeled general tyrosine kinase (TK) substrate and ATP. The mixture was incubated at room temperature for 40 min for reaction. After the termination of the reaction, an Eu3+-Cryptate-labeled antibody against TK and streptavidin-XL665 were added and the mixture was incubated at room temperature for 60 min. The luminescences at 615 nm and 665 nm were detected and the ratio of 665/615 was calculated to quantify the level of TK substrate phosphorylation. Inhibition % and IC50 of the compounds were calculated relative to the control group.

[2] = system: EGFR (del19/T790M/C797S); assay: HTRF inhibitory activity assay against EGFR (del19/T790M/C797S) enzyme; format: biochemical
Outline: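 Wild-type or mutant EGFR preincubated with serially diluted compound 10 min at 28 °C, then reacted 40 min at room temperature with biotinylated TK substrate and ATP. Phosphorylation detected by HTRF (Eu-cryptate anti-TK antibody, streptavidin-XL665, 60 min), 665/615 nm ratio; % inhibition and IC50 vs control.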

[3] = system: A431 (EGFR WT) cells; assay: Antiproliferative activity against A431 (EGFR WT) cells, Cell Titer Glow; format: cell-based; conditions: Homo sapiens, A-431, 72 h; three days after addition of compounds; read-out: Antiproliferative activity A431 wild-type (WT) IC50
Method: (§1) Antiproliferative Activity of the Compounds Disclosed Herein Against Ba/F3 (EGFR^del19/T790M/C797S) Triple-Mutant Cells and A431 (EGFR WT) Cells
(§2) • 3000 Ba/F3 cells carrying EGFR (del19/T790M/C797S) or 2000 A431 cells were seeded in a 384-well plate. After one day, serially diluted compounds were added (up to 500 nM for Ba/F3 cells and up to 10 μM for A431 cells). Three days after the addition of the compounds, Cell Titer Glow was added to evaluate cell growth and the percentage cell growth inhibition by the compounds and the IC50 values were calculated.

[4] = biological target: Ba/F3 (EGFR^del19/T790M/C797S) triple-mutant cells (Homo sapiens, UniProt P00533, T790M/C797S, cells depend on it, form not given); assay: Antiproliferative activity against Ba/F3 (EGFR del19/T790M/C797S) triple-mutant cells, Cell Titer Glow; format: cell-based; conditions: three days after addition of compounds; read-out: Antiproliferative activity BaF3(EGFR^del19/T790M/C797S) IC50
Method: as §1, §2

EGFR (L858R/T790M/C797S), sequence (P00533 25-1210 T790M/C797S/L858R): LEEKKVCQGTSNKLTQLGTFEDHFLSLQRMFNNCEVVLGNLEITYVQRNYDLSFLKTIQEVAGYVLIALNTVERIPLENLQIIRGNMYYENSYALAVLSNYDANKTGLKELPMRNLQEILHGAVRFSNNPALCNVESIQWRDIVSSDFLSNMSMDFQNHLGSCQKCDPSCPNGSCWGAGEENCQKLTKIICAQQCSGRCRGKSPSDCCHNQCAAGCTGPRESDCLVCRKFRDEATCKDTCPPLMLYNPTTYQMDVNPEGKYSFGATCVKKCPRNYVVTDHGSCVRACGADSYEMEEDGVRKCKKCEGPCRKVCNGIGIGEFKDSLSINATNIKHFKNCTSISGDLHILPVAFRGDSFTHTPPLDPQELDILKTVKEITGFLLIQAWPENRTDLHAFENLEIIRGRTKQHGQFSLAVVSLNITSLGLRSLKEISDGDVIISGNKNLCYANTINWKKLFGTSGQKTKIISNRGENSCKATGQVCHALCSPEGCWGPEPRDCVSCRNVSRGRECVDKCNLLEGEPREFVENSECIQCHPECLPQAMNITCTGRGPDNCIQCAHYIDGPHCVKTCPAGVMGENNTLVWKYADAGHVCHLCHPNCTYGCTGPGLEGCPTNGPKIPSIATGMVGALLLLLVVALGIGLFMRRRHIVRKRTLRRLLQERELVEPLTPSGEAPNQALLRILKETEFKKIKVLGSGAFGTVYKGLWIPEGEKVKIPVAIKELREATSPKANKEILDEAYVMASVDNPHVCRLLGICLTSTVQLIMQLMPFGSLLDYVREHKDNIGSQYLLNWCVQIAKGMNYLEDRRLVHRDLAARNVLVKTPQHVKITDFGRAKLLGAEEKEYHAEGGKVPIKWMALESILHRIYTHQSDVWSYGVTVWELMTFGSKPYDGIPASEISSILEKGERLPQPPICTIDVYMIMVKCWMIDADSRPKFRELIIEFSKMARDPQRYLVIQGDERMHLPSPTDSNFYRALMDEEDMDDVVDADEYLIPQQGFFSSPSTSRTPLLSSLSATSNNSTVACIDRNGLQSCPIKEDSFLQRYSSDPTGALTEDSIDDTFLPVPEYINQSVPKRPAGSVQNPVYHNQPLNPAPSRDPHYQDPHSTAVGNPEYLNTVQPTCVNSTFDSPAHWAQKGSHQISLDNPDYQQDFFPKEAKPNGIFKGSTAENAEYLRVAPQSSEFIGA
Ba/F3 (EGFR^del19/T790M/C797S) triple-mutant cells, sequence (P00533 with tags, fused parts or gaps DEL746-750/T790M/C797S, form open): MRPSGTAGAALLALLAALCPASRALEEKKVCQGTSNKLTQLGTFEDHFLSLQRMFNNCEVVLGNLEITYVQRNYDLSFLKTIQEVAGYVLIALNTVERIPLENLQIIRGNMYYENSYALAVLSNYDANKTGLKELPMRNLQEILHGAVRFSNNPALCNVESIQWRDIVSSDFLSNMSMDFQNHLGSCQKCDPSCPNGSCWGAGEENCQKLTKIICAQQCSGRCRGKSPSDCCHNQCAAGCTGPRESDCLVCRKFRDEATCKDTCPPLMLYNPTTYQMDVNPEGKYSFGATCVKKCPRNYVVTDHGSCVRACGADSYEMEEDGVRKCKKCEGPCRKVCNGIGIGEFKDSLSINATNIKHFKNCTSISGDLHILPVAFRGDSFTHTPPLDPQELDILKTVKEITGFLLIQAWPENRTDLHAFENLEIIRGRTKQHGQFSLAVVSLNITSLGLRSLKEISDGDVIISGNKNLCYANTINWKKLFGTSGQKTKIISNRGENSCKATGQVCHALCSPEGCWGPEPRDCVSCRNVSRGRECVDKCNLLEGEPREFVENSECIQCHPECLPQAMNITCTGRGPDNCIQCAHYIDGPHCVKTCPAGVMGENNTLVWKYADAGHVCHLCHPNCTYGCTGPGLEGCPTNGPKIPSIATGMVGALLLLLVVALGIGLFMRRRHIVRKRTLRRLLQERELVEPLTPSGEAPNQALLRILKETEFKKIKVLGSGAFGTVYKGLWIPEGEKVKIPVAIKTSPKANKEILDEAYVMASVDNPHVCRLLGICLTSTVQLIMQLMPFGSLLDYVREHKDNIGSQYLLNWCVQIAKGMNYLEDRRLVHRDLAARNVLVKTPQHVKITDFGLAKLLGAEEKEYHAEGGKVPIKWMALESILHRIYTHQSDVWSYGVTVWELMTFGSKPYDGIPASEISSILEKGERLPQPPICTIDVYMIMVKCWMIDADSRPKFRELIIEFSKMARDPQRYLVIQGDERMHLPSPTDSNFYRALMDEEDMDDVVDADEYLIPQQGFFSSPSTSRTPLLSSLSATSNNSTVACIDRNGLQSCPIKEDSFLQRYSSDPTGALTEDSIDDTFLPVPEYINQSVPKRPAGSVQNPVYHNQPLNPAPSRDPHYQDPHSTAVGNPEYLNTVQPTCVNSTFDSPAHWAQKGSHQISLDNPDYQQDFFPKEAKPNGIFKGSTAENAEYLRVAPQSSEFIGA

SMILES | inhibition at 0.0003 µM [1] | EGFR (del19/T790M/C797S) inhibition (%) (0.3 nM compound) [2] | pIC50 [3] | GI50 [4]
CN1CCN(C2CCN(c3ccc(Nc4nc(NC5CC6(COC6)C5)c(-c5cccc6[nH]ccc56)nc4C(N)=O)cc3F)CC2)CC1 [compound 536] | > 50% | +++ (+++ indicates an inhibition greater than 50%.) |  | 
CN(C)c1ccc(Nc2nc(NC3CCOCC3)c(-c3ccncc3)nc2C(N)=O)cc1 [compound 124] |  | + (+ indicates an inhibition less than or equal to 20%) | < 5.00 | > 100 nM
CN1CCN(C2CCN(c3ccc(Nc4nc(NC5CCOCC5)c(-c5cccc6[nH]ccc56)nc4C(N)=O)cc3F)CC2)CC1 [compound 519] | > 50% | +++ (+++ indicates an inhibition greater than 50%.) |  | 
CN1CCN(C2CCN(c3ccc(Nc4nc(N[C@H]5C[C@H](O)C5)c(-c5cccc6[nH]ccc56)nc4C(N)=O)cc3)CC2)CC1 [compound 525] |  | +++ (+++ indicates an inhibition greater than 50%.) | 7.22 | 25 nM
NC(=O)c1nc(-c2ccncc2)c(NC2CCOCC2)nc1Nc1ccccc1 [compound 119] |  | + (+ indicates an inhibition less than or equal to 20%) | < 5.00 | > 100 nM
CN1CCN(C2CCN(c3ccc(Nc4nc(NC5CCCC5)c(-c5cccc6[nH]ccc56)nc4C(N)=O)cc3)CC2)CC1 [compound 524] | > 50% | +++ (+++ indicates an inhibition greater than 50%.) |  | 
CN1CCN(C2CCN(c3ccc(Nc4nc(NC5CCOCC5)c(-c5ccco5)nc4C(N)=O)cc3)CC2)CC1 [compound 69] | ≤ 20% | + (+ indicates an inhibition less than or equal to 20%) |  | 
CN1CCN(C2CCN(c3ccc(Nc4nc(N[C@@H]5CC[C@@H](O)C5)c(-c5ccccc5)nc4C(N)=O)cc3)CC2)CC1 [compound 137, 5-(((1R,3R)-3-hydroxycyclopentyl)amino)-3-((4-(4-(4-methylpiperazin-1-yl)piperidin-1-yl)phenyl)amino)-6-phenylpyrazine-2-carboxamide] | 20 to 50% | ++ (++ indicates an inhibition from 20% to 50%) |  | 
CN1CCN(C2CCN(c3ccc(Nc4nc(NCC(C)(C)O)c(-c5cccc6[nH]ccc56)nc4C(N)=O)cc3)CC2)CC1 [compound 528] |  | +++ (+++ indicates an inhibition greater than 50%.) | 7.15 | 13 nM
CN1CCN(C2CCN(c3ccc(Nc4nc(N[C@H]5C[C@@H](O)C5)c(-c5ccccc5)nc4C(N)=O)cc3)CC2)CC1 [compound 31] |  | +++ (+++ indicates an inhibition greater than 50%.) | 6.27 | 65 nM
NC(=O)c1nc(-c2ccncc2)c(NC2CCOCC2)nc1Nc1ccc(CN2CCOCC2)cc1 [compound 123] |  | ++ (++ indicates an inhibition from 20% to 50%) | < 5.00 | 140 nM
CN1CCN(C2CCN(c3ccc(Nc4nc(NC5CCC5)c(-c5cccc6[nH]ccc56)nc4C(N)=O)cc3)CC2)CC1 [compound 523] | > 50% | +++ (+++ indicates an inhibition greater than 50%.) |  | 
Cc1c[nH]nc1-c1nc(C(N)=O)c(Nc2ccc(N3CCC(N4CCN(C)CC4)CC3)cc2)nc1NC1CCOCC1 [compound 111] |  | + (+ indicates an inhibition less than or equal to 20%) | 6.92 | 105 nM
CN1CCN(Cc2ccc(Nc3nc(NC4CCOCC4)c(-c4ccncc4)nc3C(N)=O)cc2)CC1 [compound 120] |  | + (+ indicates an inhibition less than or equal to 20%) | 6.17 | 119 nM
CN1CCN(C2CCN(c3ccc(Nc4nc(NC5CCOCC5)c(-c5ccncc5)nc4C(N)=O)cc3F)CC2)CC1 [compound 122] |  | +++ (+++ indicates an inhibition greater than 50%.) | 6.42 | 40 nM
CN1CCN(C2CCN(c3ccc(Nc4nc(NC5CCOCC5)c(-c5cccs5)nc4C(N)=O)cc3)CC2)CC1 [compound 94] | ≤ 20% | ++ (++ indicates an inhibition from 20% to 50%) |  | 
CN1CCN(C2CCN(c3ccc(Nc4nc(NC5CCOCC5)c(-c5ccnc6[nH]ccc56)nc4C(N)=O)cc3)CC2)CC1 [compound 512] |  | +++ (+++ indicates an inhibition greater than 50%.) | 7.70 | 6 nM
CN1CCN(c2ccc(Nc3nc(NC4CCOCC4)c(-c4ccncc4)nc3C(N)=O)cc2)CC1 [compound 118] |  | ++ (++ indicates an inhibition from 20% to 50%) | 5.39 | 82 nM
CN1CCN(C2CCN(c3ccc(Nc4nc(N[C@@H]5CCC[C@@H]5O)c(-c5cccc6[nH]ccc56)nc4C(N)=O)cc3)CC2)CC1 [compound 529] |  | +++ (+++ indicates an inhibition greater than 50%.) | 7.30 | 18 nM
Cc1n[nH]cc1-c1nc(C(N)=O)c(Nc2ccc(N3CCC(N4CCN(C)CC4)CC3)cc2)nc1NC1CCOCC1 [compound 110] |  | + (+ indicates an inhibition less than or equal to 20%) | 6.34 | > 100 nM
CN1CCN(C2CCN(c3ccc(Nc4nc(NCCS(C)(=O)=O)c(-c5ccccc5)nc4C(N)=O)cc3)CC2)CC1 [compound 54] |  | + (+ indicates an inhibition less than or equal to 20%) | 5.46 | > 100 nM
CN1CCN(C2CCN(c3ccc(Nc4nc(N[C@H]5CC[C@H](O)CC5)c(-c5cccc6[nH]ccc56)nc4C(N)=O)cc3F)CC2)CC1 [compound 535] | > 50% | +++ (+++ indicates an inhibition greater than 50%.) |  | 
CC(C)Nc1nc(Nc2ccc(N3CCC(N4CCN(C)CC4)CC3)cc2)c(C(N)=O)nc1-c1cc[nH]n1 [compound 616] |  | +++ (+++ indicates an inhibition greater than 50%.) | 6.44 | 32 nM
CN1CCN(C2CCN(c3ccc(Nc4nc(NC5CCC5)c(-c5cccc6[nH]ccc56)nc4C(N)=O)cc3F)CC2)CC1 [compound 532] | > 50% | +++ (+++ indicates an inhibition greater than 50%.) |  | 
Cc1cc(Nc2nc(NC3CCOCC3)c(-c3cc[nH]n3)nc2C(N)=O)ccc1N1CCC(N2CCN(C)CC2)CC1 [compound 177] |  | ++ (++ indicates an inhibition from 20% to 50%) | 6.16 | 19 nM
CN1CCN(C2CCN(c3ccc(Nc4nc(NC5CCOCC5)c(-c5cccc(F)c5)nc4C(N)=O)cc3)CC2)CC1 [compound 60] | ≤ 20% | ++ (++ indicates an inhibition from 20% to 50%) |  | 
CC(C)Nc1nc(Nc2ccc(N3CCC(N4CCN(C)CC4)CC3)cc2)c(C(N)=O)nc1-c1ccncc1 [compound 611] |  | +++ (+++ indicates an inhibition greater than 50%.) | 6.44 | 21 nM
